The values that follow come from US20220370416A1, “COMPOUNDS AND METHODS FOR TARGETED DEGRADATION OF KRAS” (Arvinas Operations, Inc., priority 2020, published 2022).

For test [1], the target named is T1, HiBit-KRAS^G12C (Homo sapiens, UniProt P01116, G12C). Put plainly: HiBit degradation assay in MiaPaCa-2 HiBit-KRas^G12C cells. Type of test: cell-based. The following applies: 24 hours; for Dmax: MIA PaCa-2, MiaPaCa-2 HiBit-KRas^G12C cells; for DC50: read-out: KRas^G12C-HiBiT (MiaPaCa; 0.5% DMSO) IC50. In outline:
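MiaPaCa-2 cells with CRISPR N-terminal HiBit knock-in on one endogenous KRAS^G12C allele, treated 24 hours at 37° C with compound titrated 10 μM to 20 nM (0.1% or 0.5% DMSO). Lytic HiBit luminescence normalized to DMSO, 4-parameter fit giving DC50 and Dmax; points cytotoxic to […] cells by alamar blue excluded.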
A general note: With HiBiT, luminescence reflects the tagged protein that the partner subunit can reach.

Test [2] has as its target T1, HiBit-KRAS^G12C. Put plainly: HiBit degradation assay in SW1573 HiBit-KRas^G12C cells. Details: expressed in transfected cells; host or cells: SW1573 (clone E6), modified pcDNA3.1 vector, TK promoter. Type of test: cell-based. The note with it: 24 hours; for Dmax: SW1573, SW1573 HiBit-KRas^G12C. In outline: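 SW1573 cells stably expressing N-terminally HiBit-tagged KRAS G12C, under the TK promoter, were treated 24 h at 37 °C with 10 μM to 20 nM compound in 0.1% or 0.5% DMSO. Residual HiBit luminescence normalised to DMSO and fitted with a 4-parameter model for DC50 and Dmax. Points with ≥50% viability loss (alamar blue) excluded.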

[3] abbreviates: 0.1% DMSO, maximum degradation, read-out: KRas^G12C-HiBiT (MiaPaCa; 0.1% DMSO) DMax.
Setting [4] is: 0.1% DMSO, read-out: KRas^G12C-HiBit (SW1573; 0.1% DMSO) Dmax**.
The mark [5] stands for this setting: SW1573 HiBit-KRas^G12C, 0.1% DMSO, read-out: KRas^G12C-HIBit (SW1573; 0.1% DMSO) DC50*.
Where [6] appears, read: MiaPaCa-2 HiBit-KRas^G12C cells, 0.5% DMSO.
[7] abbreviates: read-out: KRas^G12C-HiBiT (SW1573; 0.5% DMSO) IC50***, SW1573 HiBit-KRas^G12C, 0.5% DMSO.
[8] abbreviates: 0.5% DMSO, maximum degradation, read-out: KRas^G12C-HiBiT (MiaPaCa; 0.5% DMSO) DMax.
Setting [9] is: 0.5% DMSO, read-out: KRas^G12C-HiBiT (SW1573; 0.5% DMSO) Dmax**.

The structures appear in SMILES notation.

T1 sequence (P01116 1-186 isoform P01116-2 G12C limits assumed): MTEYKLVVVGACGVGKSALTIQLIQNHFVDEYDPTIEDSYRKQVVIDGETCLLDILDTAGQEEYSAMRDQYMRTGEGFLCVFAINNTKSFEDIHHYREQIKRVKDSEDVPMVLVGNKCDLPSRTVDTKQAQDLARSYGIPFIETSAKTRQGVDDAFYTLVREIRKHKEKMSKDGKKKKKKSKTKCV

As for `C=CC(=O)N1CCN(c2nc(OCCN3CCC(OCCOc4cc([C@@H](C(=O)N5C[C@H](O)C[C@H]5C(=O)N[C@@H](C)c5ccc(-c6scnc6C)cc5)C(C)C)on4)CC3)nc3c(F)c(-c4cc(O)cc5ccccc45)c(Cl)cc23)C[C@@H]1CC#N` [Compound 22, (2S,4R)-1-[(2S)-2-{3-[2-({1-[2-({6-chloro-4-[(3S)-3-(cyanomethyl)-4-(prop-2-enoyl)piperazin-1-yl]-8-fluoro-7-(3-hydroxynaphthalen-1-yl)quinazolin-2-yl}oxy)ethyl]piperidin-4-yl}oxy)ethoxy]-1,2-oxazol-5-yl}-3-methylbutanoyl]-4-hydroxy-N-[(1S)-1-[4-(4-methyl-1,3-thiazol-5-yl)phenyl]ethyl]pyrrolidine-2-carboxamide], the Dmax in test [1] (setting [3]) and in test [2] (setting [4]) was less than 35% throughout. In test [2] (setting [5]), the DC50 lay in the range of 100 to 1000 nM.

For the molecule `C=CC(=O)N1CCN(c2nc(OCCN3CCC4(CC3)CN(c3cc([C@H](C(=O)N5C[C@H](O)C[C@H]5C(=O)N[C@@H](C)c5ccc(-c6scnc6C)cc5)C(C)C)on3)C4)nc3c(F)c(-c4cc(O)cc5ccccc45)c(Cl)cc23)C[C@@H]1CC#N` [Compound 139, (2S,4R)-1-[(2R)-2-(3-{7-[2-({6-chloro-4-[(3S)-3-(cyanomethyl)-4-(prop-2-enoyl)piperazin-1-yl]-8-fluoro-7-(3-hydroxynaphthalen-1-yl)quinazolin-2-yl}oxy)ethyl]-2,7-diazaspiro[3.5]nonan-2-yl}-1,2-oxazol-5-yl)-3-methylbutanoyl]-4-hydroxy-N-[(1S)-1-[4-(4-methyl-1,3-thiazol-5-yl)phenyl]ethyl]pyrrolidine-2-carboxamide], the “KRas^G12C-HiBiT (MiaPaCa; 0.5% DMSO) DMax” value in test [1] (MiaPaCa-2 HiBit-KRas^G12C cells, 0.5% DMSO, maximum degradation) was “A (A ≥ 70)”. Moreover, the DC50 is 100 to 1000 nM in test [1] (setting [6]) and less than 100 nM in test [2] (setting [7]). Also, the “KRas^G12C-HiBiT (SW1573; 0.5% DMSO) Dmax**” value in test [2] (SW1573 HiBit-KRas^G12C, 0.5% DMSO) is recorded as “A (A ≥ 70)”.

`C=CC(=O)N1CCN(c2nc(OCCN3CCC(C)(COc4cc([C@H](C(=O)N5C[C@H](O)C[C@H]5C(=O)N[C@@H](C)c5ccc(-c6scnc6C)cc5)C(C)C)on4)CC3)nc3c(F)c(-c4cc(O)cc5ccccc45)c(Cl)cc23)C[C@@H]1CC#N` [Compound 131, (2S,4R)-1-[(2R)-2-[3-({1-[2-({6-chloro-4-[(3S)-3-(cyanomethyl)-4-(prop-2-enoyl)piperazin-1-yl]-8-fluoro-7-(3-hydroxynaphthalen-1-yl)quinazolin-2-yl}oxy)ethyl]-4-methylpiperidin-4-yl}methoxy)-1,2-oxazol-5-yl]-3-methylbutanoyl]-4-hydroxy-N-[(1S)-1-[4-(4-methyl-1,3-thiazol-5-yl)phenyl]ethyl]pyrrolidine-2-carboxamide]: the Dmax in test [1] (setting [8]) and in test [2] (setting [9]) was more than 70% throughout. Further, the results for the DC50 in test [1] (setting [6]) and in test [2] (setting [7]) were 100 to 1000 nM and less than 100 nM, respectively.

Consider `C=CC(=O)N1C[C@H](C)N(c2nc(OCCN3CCC(COCC(=O)N[C@H](C(=O)N4C[C@H](O)C[C@H]4C(=O)N[C@@H](C)c4ccc(-c5scnc5C)cc4)C(C)(C)C)CC3)nc3c(F)c(-c4cc(O)cc5ccccc45)c(Cl)cc23)C[C@H]1C` [Compound 36, (2S,4R)-1-[(2S)-2-[2-({1-[2-({6-chloro-4-[(2S,5R)-2,5-dimethyl-4-(prop-2-enoyl)piperazin-1-yl]-8-fluoro-7-(3-hydroxynaphthalen-1-yl)quinazolin-2-yl}oxy)ethyl]piperidin-4-yl}methoxy)acetamido]-3,3-dimethylbutanoyl]-4-hydroxy-N-[(1S)-1-[4-(4-methyl-1,3-thiazol-5-yl)phenyl]ethyl]pyrrolidine-2-carboxamide], for which the Dmax in test [1] (setting [3]) was less than 35%; in test [1] (setting [8]), 35 to 70%; in test [2] (setting [4]), 35 to 70%; in test [2] (setting [9]), 35 to 70%. The DC50 in test [2] (setting [5]) lay in the range of 100 to 1000 nM.
